# Counter-ions that a name gives are not always drawn. Like-named read-outs stand apart in the source and are kept apart here.
# Legend:
# [1] = test system: IL-2 secretion by human effector memory T cells (TEM); assay: Effector memory T cells IL-2 release assay (CD3/CD28 stimulation, HTRF IL-2 detection); type: cell-based; settings: Homo sapiens, T-cell, 24 h
# How it was run: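 IL-2 released into the supernatant was quantified by HTRF after 24 h at 37 °C in 5% CO2. The cells were stimulated primary human TEM from donor buffy coats, treated with a 10-point semi-log compound series (0.1% DMSO final, triplicates).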
# [2] = molecular target: T1, Recombinant human PKC-theta (His-tagged 362-706) (Homo sapiens, UniProt Q04759); assay: PKC-theta inhibition assay (HTRF KinEASE kit); type: biochemical; settings: STK substrate 525 nM
# T1 construct: Recombinant human PKC-theta (His-tagged 362-706); His
# T1 sequence (Q04759 362-706): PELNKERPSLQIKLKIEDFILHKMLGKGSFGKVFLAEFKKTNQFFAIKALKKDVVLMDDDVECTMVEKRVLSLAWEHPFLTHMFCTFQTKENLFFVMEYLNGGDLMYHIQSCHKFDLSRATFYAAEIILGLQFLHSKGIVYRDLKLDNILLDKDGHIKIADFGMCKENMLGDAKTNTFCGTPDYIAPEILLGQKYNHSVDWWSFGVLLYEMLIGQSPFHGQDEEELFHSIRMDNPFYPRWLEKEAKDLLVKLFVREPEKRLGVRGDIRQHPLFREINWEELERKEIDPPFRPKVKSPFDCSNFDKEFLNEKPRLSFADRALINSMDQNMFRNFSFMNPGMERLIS
# How it was run: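 IC50 values were from 4-parameter logistic fits of percent inhibition, based on acceptor/donor HTRF ratios over 10 semi-log compound doses. Kinase reactions, started with substrate plus ATP, ran 30 min at 25 °C in buffer supplemented with 10 mM MgCl2, 1 mM DTT and 0.1% Tween 20; detection lasted 2 h.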
# [3] = molecular target: T2, Recombinant human PKC-delta (His-tagged 345-676) (Homo sapiens, UniProt Q05655); assay: PKC-delta inhibition assay (HTRF KinEASE kit); type: biochemical; settings: ratio, PKC-theta vs PKC-delta HTRF; for PKC-theta/PKC-delta selectivity (binned): binned A to G
# T2 construct: PKC-delta (His-tagged 345-676); His
# T2 sequence (Q05655 345-676): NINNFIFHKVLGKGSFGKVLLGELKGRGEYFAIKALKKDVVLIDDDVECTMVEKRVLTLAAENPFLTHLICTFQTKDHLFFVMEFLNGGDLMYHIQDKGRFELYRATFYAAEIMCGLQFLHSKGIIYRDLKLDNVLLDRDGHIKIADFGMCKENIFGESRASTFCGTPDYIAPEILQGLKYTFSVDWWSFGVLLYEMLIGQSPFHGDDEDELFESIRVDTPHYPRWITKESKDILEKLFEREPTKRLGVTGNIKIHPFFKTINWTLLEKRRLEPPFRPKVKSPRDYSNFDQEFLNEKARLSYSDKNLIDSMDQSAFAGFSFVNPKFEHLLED
# [4] = binned A to G, read-out: PKC-theta IL2 pIC50 (binned) (converted)
# [5] = read-out: PKC-theta IL2 pIC50 (converted)
# [6] = ATP 6.5 μM, binned A to H, read-out: PKC-theta HTRF pIC50 (binned) (converted)
# [7] = ATP 6.5 μM, read-out: PKC-theta HTRF pIC50 (converted)
Compound,"IC50 [1, 4] [nM]","IC50 [1, 5] [nM]","IC50 [2, 6] [nM]","IC50 [2, 7] [nM]",PKC-theta/PKC-delta selectivity [3],PKC-theta/PKC-delta selectivity (binned) [3],"IC50 ([2]; PKC-theta HTRF pIC50 (binned), ATP 6.5 μM, binned A to H) [nM]","IC50 ([2]; PKC-theta HTRF pIC50, ATP 6.5 μM) [nM]"
CC1(C)C(=O)Nc2nccc(-c3cc(C(F)F)cc(N4CCNCC4)n3)c21 [Example 87],100 to 316,100,3.16 to 10,6.31,10,D (a ratio of between 10 and 20),–,–
C[C@H]1CNCCCN1c1cc(C(F)(F)F)cc(-c2ccnc3c2C(C)(C)C(=O)N3)n1 [Example 189],100 to 316,251,3.16 to 10,5.01,16,D (a ratio of between 10 and 20),–,–
CC(F)(F)c1cc(-c2ccnc3c2C(C)(C)C(=O)N3)nc(N2CCCNCC2)c1 [Example 203],31.6 to 100,100,3.16 to 10,6.31,14,D (a ratio of between 10 and 20),–,–
C[C@H]1CN(c2cccc(-c3ccnc4c3C(C)(C)C(=O)N4)c2)CCN1 [Example 52],> 1000,1580,100 to 316,126,2,F (a ratio of between 1 and 5),–,–
C[C@@H]1CN(c2cc(-c3ccnc4c3C(C)(O)C(=O)N4)cc(C(F)(F)F)c2)CCN1 (some centres unmarked) [Example 77],> 1000,2510,31.6 to 100,100,12,D (a ratio of between 10 and 20),–,–
CC1(C)C(=O)Nc2nccc(-c3cc(C(F)(F)F)cc(N4CCNC[C@H]4CO)n3)c21 [Example 161],31.6 to 100,50.1,1 to 3.16,2.51,12,D (a ratio of between 10 and 20),–,–
C[C@@H]1CNCCN1c1cc(Cl)cc(-c2ccnc3c2C(C)(C)C(=O)N3)n1 [Example 140],10 to 31.6,12.6,1 to 3.16,1.58,6,E (a ratio of between 5 and 10),–,–
CC1(C)C(=O)Nc2nccc(-c3cccc(C4CCNCC4)c3)c21 [Example 45],> 1000,3980,100 to 316,200,2,F (a ratio of between 1 and 5),–,–
"C[C@@H]1CN(c2cc(C(F)(F)F)cc(-c3ccnc4c3[C@](C)(O)C(=O)N4)n2)[C@@H](C)CN1 (single isomer, unassigned) [Example 118]",100 to 316,251,10 to 31.6,25.1,12,D (a ratio of between 10 and 20),–,–
CC1(C)C(=O)Nc2nccc(-c3cc(C(F)(F)F)cc(C4(CO)CCNC4)n3)c21 (centres unmarked) [Example 70],316 to 1000,398,1 to 3.16,2.51,30,B (a ratio of between 30 and 50),–,–
"C[C@@H]1CN(c2cc(C(F)(F)F)cc(-c3ccnc4c3[C@](C)(O)C(=O)N4)n2)CCN1 (single isomer, unassigned) [Example 108]",100 to 316,126,10 to 31.6,12.6,15,D (a ratio of between 10 and 20),–,–
"CC1(C)C(=O)Nc2nccc(-c3cc(F)cc(CN4CCNCC4)c3)c21 [Example 32, 4-[3-fluoro-5-(piperazin-1-ylmethyl)phenyl]-3,3-dimethyl-1H-pyrrolo[2,3-b]pyridin-2-one; dihydrochloride]",> 1000,3980,–,–,3,F (a ratio of between 1 and 5),100 to 316,200
"CC[C@]1(C)C(=O)Nc2nccc(-c3cc(Cl)cc(N4CCN[C@@H](C)C4)n3)c21 (single isomer, unassigned) [Example 171]",31.6 to 100,39.8,1 to 3.16,2.51,9,E (a ratio of between 5 and 10),–,–
CC1C(=O)Nc2nccc(-c3cccc(CN4CCNCC4)c3)c21 (centres unmarked) [Example 19],> 1000,2000,100 to 316,200,2,F (a ratio of between 1 and 5),–,–
COC1(C)C(=O)Nc2nccc(-c3cc(C(F)(F)F)cc(N4CCN[C@@H](C)C4)n3)c21 (some centres unmarked) [Example 112],100 to 316,251,10 to 31.6,15.8,20,C (a ratio of between 20 and 30),–,–
O=C1Nc2nccc(-c3cc(F)cc(N4CCNCC4)c3)c2C12CC2 [Example 34],> 1000,3980,> 1000,1000,2,F (a ratio of between 1 and 5),–,–
C[C@@H]1NCCN(c2cc(C(F)(F)F)cc(-c3ccnc4c3C(C)(C)C(=O)N4)n2)[C@@H]1C [Example 169],31.6 to 100,100,3.16 to 10,7.94,16,D (a ratio of between 10 and 20),–,–
O=c1[nH]c2nccc(-c3cccc(CN4CCNCC4)c3)c2[nH]1 [Example 20],> 1000,10000,> 1000,3980,–,G (a ratio of 0 to 1),–,–
"CC[C@@]1(C)C(=O)Nc2nccc(-c3cc(C(C)(F)F)cc(N4CCNC[C@H]4C)n3)c21 (single isomer, unassigned) [Example 202]",31.6 to 100,50.1,3.16 to 10,3.98,22,C (a ratio of between 20 and 30),–,–
CC1(C)C(=O)Nc2nccc(-c3cc(C(F)(F)F)nc(N4CCNCC4)n3)c21 [Example 98],100 to 316,316,10 to 31.6,20,15,D (a ratio of between 10 and 20),–,–
"C[C@@]1(O)C(=O)Nc2nccc(-c3cc(Cl)cc(N4CCNC(CC(F)(F)F)C4)n3)c21 (single isomer, unassigned) [Example 122]",100 to 316,251,3.16 to 10,3.98,16,D (a ratio of between 10 and 20),–,–
CC1(C)C(=O)Nc2nccc(-c3cc(N4CCNCC4)cc(C(F)(F)F)c3)c21 [Example 37],> 1000,1260,31.6 to 100,100,5,F (a ratio of between 1 and 5),–,–
C[C@@H]1CN(c2cccc(-c3ccnc4c3C(C)(C)C(=O)N4)c2)CCN1 [Example 54],> 1000,2000,31.6 to 100,100,3,F (a ratio of between 1 and 5),–,–
"CC[C@H]1CN(c2cc(C(F)(F)F)cc(-c3ccnc4c3[C@](C)(OC)C(=O)N4)n2)CCN1 (single isomer, unassigned) [Example 191]",100 to 316,251,10 to 31.6,15.8,22,C (a ratio of between 20 and 30),–,–
CC[C@H]1CN(c2ccc(Cl)c(-c3ccnc4c3C(O)(CC)C(=O)N4)n2)CCN1 (some centres unmarked) [Example 132],316 to 1000,1000,100 to 316,100,4,F (a ratio of between 1 and 5),–,–
CCC1(O)C(=O)Nc2nccc(-c3cc(C(F)(F)F)cc(N4CCNC[C@H]4C)n3)c21 (some centres unmarked) [Example 131],31.6 to 100,39.8,3.16 to 10,3.98,6,E (a ratio of between 5 and 10),–,–
CC1(C)C(=O)Nc2nccc(-c3cc(C(F)(F)F)cc(N4C[C@H]5CC[C@@H](C4)N5)n3)c21 [Example 135],100 to 316,316,10 to 31.6,20,13,D (a ratio of between 10 and 20),–,–
"CC[C@@H]1CNCCN1c1cc(Cl)cc(-c2ccnc3c2[C@](C)(O)C(=O)N3)n1 (single isomer, unassigned) [Example 139]",1 to 3.16,2,0.316 to 1,0.794,1,F (a ratio of between 1 and 5),–,–
